Values joined by “and” are separate entries in the source; they are usually repeats but may differ in a detail not shown here. Identical values can stand only once. Toxic doses and inconclusive results are not listed.
Tested on: P388 leukemia ip, CD2F1 mice, survival T/C
Test: NCI In Vivo Anticancer Drug Screen. Data for tumor model P388 Leukemia (intraperitoneal) in CD2F1 (CDF1) mice
Settings: endpoint: median survival time, higher = longer survival
Method in brief: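 Mice carrying the transplanted tumor received test compound or vehicle. Survival was recorded in each group, and the value is the treated-group measurement divided by that of the vehicle-treated control group.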

[1] = dose: 100.0 mg/kg/injection, schedule: Q01DX001 (ip), vehicle: Klucel (hydroxypropylcellulose) (HPC)
[2] = dose: 200.0 mg/kg/injection, schedule: Q01DX001 (ip), vehicle: Klucel (hydroxypropylcellulose) (HPC)
[3] = dose: 400.0 mg/kg/injection, schedule: Q01DX001 (ip), vehicle: Klucel (hydroxypropylcellulose) (HPC)
[4] = dose: 50.0 mg/kg/injection, schedule: Q01DX005 (ip), vehicle: saline with Tween-80
[5] = dose: 60.0 mg/kg/injection, schedule: Q01DX005 (ip), vehicle: saline with Tween-80
[6] = dose: 100.0 mg/kg/injection, schedule: Q01DX005 (ip), vehicle: saline with Tween-80
[7] = dose: 120.0 mg/kg/injection, schedule: Q01DX005 (ip), vehicle: saline with Tween-80
[8] = dose: 200.0 mg/kg/injection, schedule: Q01DX005 (ip), vehicle: saline with Tween-80
[9] = dose: 240.0 mg/kg/injection, schedule: Q01DX005 (ip), vehicle: saline with Tween-80
[10] = dose: 50.0 mg/kg/injection, schedule: Q01DX009 (ip), vehicle: Klucel (hydroxypropylcellulose) (HPC)
[11] = dose: 100.0 mg/kg/injection, schedule: Q01DX009 (ip), vehicle: Klucel (hydroxypropylcellulose) (HPC)
[12] = dose: 200.0 mg/kg/injection, schedule: Q01DX009 (ip), vehicle: Klucel (hydroxypropylcellulose) (HPC)
[13] = dose: 25.0 mg/kg/injection, schedule: Q01DX009 (ip), vehicle: saline
[14] = dose: 50.0 mg/kg/injection, schedule: Q01DX009 (ip), vehicle: saline
[15] = dose: 100.0 mg/kg/injection, schedule: Q01DX009 (ip), vehicle: saline
[16] = dose: 200.0 mg/kg/injection, schedule: Q01DX009 (ip), vehicle: saline
[17] = dose: 50.0 mg/kg/injection, schedule: Q01DX009 (ip), vehicle: saline with Tween-80

With `CC(C)N[C@@H]1CCC[C@H]1O` the T/C [1] was 105 % of control, the T/C [2] was 113 % of control and the T/C [3] was 115 % of control.

With `COC(=O)CCCN1CC2C=C(C#N)C1C(C(=O)OC)C2` (stereo not drawn) the T/C (dose: 60.0 mg/kg/injection, schedule: Q01DX005 (ip), vehicle: saline) was 98 % of control and the T/C (dose: 120.0 mg/kg/injection, schedule: Q01DX005 (ip), vehicle: saline) was 96 % of control.

With `O=C(CCCNC(=O)OCc1ccccc1)OCc1ccc2c(c1)C(=O)c1ccccc1C2=O` the T/C [1] was 89 % of control, the T/C [2] was 88 % of control and the T/C [3] was 86 % of control.

With `COC(=O)C1=COC(C)C2CN3CCc4c([nH]c5ccccc45)C3CC12` (stereo not drawn) the T/C [4] was 106 % of control, the T/C [5] was 100 % of control and the T/C [6] was 106 % of control. For the same compound, the T/C [7] was 93 % of control, the T/C [8] was 100 % of control and the T/C [9] was 90 % of control.

For `CCn1c(=O)c2n[nH]nc2n(CCCl)c1=O`, the T/C [10] was 101 % of control, the T/C [11] was 103 % of control and the T/C [12] was 96 % of control.

`O=C(NS(=O)C1C=CCCC1)OC1CCCCC1c1ccccc1` (stereo not drawn) was tested, and the T/C [4] was 99 % of control, the T/C [6] was 100 % of control and the T/C [8] was 105 % of control.

In the case of `CC(=O)OCC1OC([n+]2cccc(C(N)=O)c2)C(OC(C)=O)C(OC(C)=O)C1OC(C)=O` (stereo not drawn), the T/C [13] is reported as 100 % of control, the T/C [14] is reported as 101 % of control and the T/C [15] is reported as 100 % of control. For the same compound, the T/C [16] was 103 % of control.

In the case of `O=C(CCc1ccccc1)OC/C=C/COC(=O)c1ccccc1`, the T/C [10] is reported as 102 % of control, the T/C [11] is reported as 111 % of control and the T/C [12] is reported as 106 % of control.

In the case of `c1ccc2c(c1)[nH]c1c2c(N2CCOCC2)nn2nnnc12`, the T/C (dose: 100.0 mg/kg/injection, schedule: Q01DX001 (ip), vehicle: saline with Tween-80) is reported as 107 % of control, the T/C (dose: 200.0 mg/kg/injection, schedule: Q01DX001 (ip), vehicle: saline with Tween-80) is reported as 106 % of control and the T/C (dose: 400.0 mg/kg/injection, schedule: Q01DX001 (ip), vehicle: saline with Tween-80) is reported as 109 % of control.

`c1ccc(P(CCNCCP(c2ccccc2)c2ccccc2)c2ccccc2)cc1` was tested, and the T/C [4] was 105 % of control and the T/C [6] was 109 % of control.

`CC(=O)C1=C(C(C)=O)C2(C)OC1(C)c1ccccc12` was tested, and the T/C [1] was 107 % of control, the T/C [2] was 104 % of control and the T/C [3] was 99 % of control.

`Nc1nc(N)c2nc3c(nc2n1)C(=O)N(c1ccc(C(=O)O)cc1)C3` was tested, and the T/C (dose: 6.25 mg/kg/injection, schedule: Q01DX009 (ip), vehicle: saline with Tween-80) was 106 % of control, the T/C (dose: 12.5 mg/kg/injection, schedule: Q01DX009 (ip), vehicle: saline with Tween-80) was 115 % of control and the T/C (dose: 25.0 mg/kg/injection, schedule: Q01DX009 (ip), vehicle: saline with Tween-80) was 117 % of control. The T/C [17] was 108 % of control.

In the case of `O=C1OC(OC/C(Br)=C(/Br)COC2OC(=O)C(Cl)=C2Cl)C(Cl)=C1Cl` (stereo not drawn), the T/C [5] is reported as 106 % of control and the T/C [7] is reported as 108 % of control.

For `CC1(C)OC2CC3CC(O)CC3C2O1` (stereo not drawn), the T/C [5] was 98 % of control, the T/C [7] was 102 % of control and the T/C [9] was 102 % of control.

With `O=C[C@@H](CO)O[C@H](C=O)c1c[nH]c(=O)[nH]c1=O` the T/C (dose: 5.0 mg/kg/injection, schedule: Q01DX005 (ip), vehicle: saline) was 118 % of control, the T/C (dose: 12.5 mg/kg/injection, schedule: Q01DX005 (ip), vehicle: saline) was 155 % of control and the T/C (dose: 12.5 mg/kg/injection, schedule: Q04DX003 (ip), vehicle: saline) was 124 % of control. For the same compound, the T/C (dose: 25.0 mg/kg/injection, schedule: Q01DX005 (ip), vehicle: saline) was 156 % of control and 158 % of control, the T/C (dose: 40.0 mg/kg/injection, schedule: Q01DX005 (ip), vehicle: saline) was 155 % of control and the T/C (dose: 50.0 mg/kg/injection, schedule: Q01DX005 (ip), vehicle: saline) was 173 % of control and 190 % of control. For the same compound, the T/C (dose: 80.0 mg/kg/injection, schedule: Q01DX005 (ip), vehicle: saline) was 186 % of control and 245 % of control and the T/C (dose: 100.0 mg/kg/injection, schedule: Q04DX003 (ip), vehicle: saline) was 185 % of control.

With `COC(=O)C1=CC[C@@H]2C(C(=O)O)=CO[C@@H](OC3OC(CO)C(O)C(O)C3O)[C@H]12` (stereo partly drawn) the T/C (dose: 2.8 mg/kg/injection, schedule: Q01DX005 (ip), vehicle: saline + alcohol) was 101 % of control, the T/C (dose: 5.5 mg/kg/injection, schedule: Q01DX005 (ip), vehicle: saline + alcohol) was 99 % of control and the T/C (dose: 11.0 mg/kg/injection, schedule: Q01DX005 (ip), vehicle: saline + alcohol) was 108 % of control. For the same compound, the T/C (dose: 22.0 mg/kg/injection, schedule: Q01DX005 (ip), vehicle: saline + alcohol) was 100 % of control.

For `CC1OC2=C(C(=O)c3ccccc3C2=O)C(O)C1O` (stereo not drawn), the T/C (dose: 25.0 mg/kg/injection, schedule: Q01DX001 (ip), vehicle: Klucel (hydroxypropylcellulose) (HPC)) was 96 % of control and the T/C (dose: 50.0 mg/kg/injection, schedule: Q01DX001 (ip), vehicle: Klucel (hydroxypropylcellulose) (HPC)) was 96 % of control.

For `O=C(Nc1ccc(Cl)cc1)Nc1nnc2nc(C3(c4nc5nnc(NC(=O)Nc6ccc(Cl)cc6)n5[nH]c4=O)CCCC3=O)c(=O)[nH]n12`, the T/C (dose: 30.0 mg/kg/injection, schedule: Q01DX005 (ip), vehicle: saline with Tween-80) was 95 % of control, the T/C [5] was 91 % of control and 95 % of control and the T/C [9] was 86 % of control.

`Cc1ccc(S(=O)(=O)OC2C(OCc3ccccc3)C(OCc3ccccc3)C3CON(C)C32)cc1` (stereo not drawn) was tested, and the T/C (dose: 50.0 mg/kg/injection, schedule: Q01DX005 (ip), vehicle: Klucel (hydroxypropylcellulose) (HPC)) was 86 % of control, the T/C (dose: 100.0 mg/kg/injection, schedule: Q01DX005 (ip), vehicle: Klucel (hydroxypropylcellulose) (HPC)) was 89 % of control and the T/C (dose: 200.0 mg/kg/injection, schedule: Q01DX005 (ip), vehicle: Klucel (hydroxypropylcellulose) (HPC)) was 92 % of control.

In the case of `Cc1nsc(Br)c1[N+](=O)[O-]`, the T/C [13] is reported as 105 % of control, the T/C [14] is reported as 107 % of control and the T/C [15] is reported as 107 % of control. For the same compound, the T/C (dose: 100.0 mg/kg/injection, schedule: Q04DX003 (ip), vehicle: saline with Tween-80) was 103 % of control, the T/C [16] was 109 % of control and the T/C (dose: 200.0 mg/kg/injection, schedule: Q04DX003 (ip), vehicle: saline with Tween-80) was 108 % of control. For the same compound, the T/C (dose: 400.0 mg/kg/injection, schedule: Q04DX003 (ip), vehicle: saline with Tween-80) was 115 % of control.

`FC(F)(F)c1cccc(CSCc2c(CSCc3cccc(C(F)(F)F)c3)c(CSCc3cccc(C(F)(F)F)c3)c(CSCc3cccc(C(F)(F)F)c3)c(CSCc3cccc(C(F)(F)F)c3)c2CSCc2cccc(C(F)(F)F)c2)c1` was tested, and the T/C [17] was 104 % of control, the T/C (dose: 100.0 mg/kg/injection, schedule: Q01DX009 (ip), vehicle: saline with Tween-80) was 98 % of control and the T/C (dose: 200.0 mg/kg/injection, schedule: Q01DX009 (ip), vehicle: saline with Tween-80) was 97 % of control.

For `C=C1C(=O)O[C@H]2[C@@H]3O[C@@H]3C[C@@H]12`, the T/C (dose: 1.56 mg/kg/injection, schedule: Q01DX009 (ip), vehicle: water) was 105 % of control, the T/C (dose: 3.13 mg/kg/injection, schedule: Q01DX009 (ip), vehicle: water) was 97 % of control and the T/C (dose: 6.25 mg/kg/injection, schedule: Q01DX009 (ip), vehicle: water) was 99 % of control. The T/C (dose: 12.5 mg/kg/injection, schedule: Q01DX009 (ip), vehicle: water) was 100 % of control and the T/C (dose: 25.0 mg/kg/injection, schedule: Q01DX009 (ip), vehicle: water) was 109 % of control.

With `Nc1ccc2ccc(NS(=O)(=O)N3CCCCC3)cc2c1` the T/C (dose: 25.0 mg/kg/injection, schedule: Q01DX005 (ip), vehicle: saline with Tween-80) was 108 % of control.

With `N#Cc1c(C(=O)NOCCCc2ccccc2)cc(-c2ccc(F)cc2)[nH]c1=O` the T/C [5] was 107 % of control and the T/C [7] was 103 % of control.

With `Brc1ccc(CC[P+](c2ccccc2)(c2ccccc2)c2ccccc2)cc1` the T/C (dose: 25.0 mg/kg/injection, schedule: Q04DX003 (ip), vehicle: Klucel (hydroxypropylcellulose) (HPC)) was 109 % of control, the T/C (dose: 50.0 mg/kg/injection, schedule: Q04DX003 (ip), vehicle: Klucel (hydroxypropylcellulose) (HPC)) was 101 % of control and the T/C (dose: 100.0 mg/kg/injection, schedule: Q04DX003 (ip), vehicle: Klucel (hydroxypropylcellulose) (HPC)) was 100 % of control and 105 % of control.

In the case of `CCOC(=O)CCC1CCCC(CCC(=O)OCC)C1=O` (stereo not drawn), the T/C (dose: 50.0 mg/kg/injection, schedule: Q01DX009 (ip), vehicle: other) is reported as 105 % of control, the T/C (dose: 100.0 mg/kg/injection, schedule: Q01DX009 (ip), vehicle: other) is reported as 101 % of control and the T/C (dose: 200.0 mg/kg/injection, schedule: Q01DX009 (ip), vehicle: other) is reported as 106 % of control.
